Experimental data taken from patent US10335494B2, “Combination of aurora kinase inhibitors and anti-CD30 antibodies” (Millennium Pharmaceuticals, Inc., priority 2013, dated 2019).

Tested on: SR-786 tumor cells (SR786 xenograft ALCL model)
Experiment: In vivo tumor efficacy model: SR786 xenograft ALCL model, SGN35 and MLN8237 alone or in combination
Parameters: species or system CB17 SCID female mice
Conditions: for average tumor volume day 15 / average tumor volume day 21: in mm³
Experimental: SR-786 (4.0×10^6) tumor cells in RPMI-1640 media were aseptically injected into the subcutaneous space in the right dorsal flank of CB17 SCID female mice (Taconic Farms, Inc) using a 26 G 5/8 needle.
Brentuximab vedotin (SGN35), one vial (Seattle Genetics) was reconstituted in 10.5 ml sterile water to give a stock solution at 4.76 mg/ml concentration. The stock solution was formulated in 0.9% saline to reach the desired concentration and administered by intraperitoneal injection (IP) q4Dx21 days at 0.3 mg/kg and 0.4 mg/kg.
MLN8237 was formulated in 10% hydroxypropyl-beta-cyclodextrin and 1% sodium bicarbonate (10% HPbCD+1% NaHCO3) and administered by oral injection (1 cc syringe, 20-22 gauge) on QD schedule at 10 mg/kg and 20 mg/kg for 21 days. MLN8237 as used in the experimental section refers to alisertib sodium salt and the amount referenced is the amount of alisertib used.
Tumors were measured twice weekly using a vernier caliper. Tumor volumes were calculated using standard procedures (0.5×[…]). When the tumors reached a volume of approximately 200 mm^3 (SR-786), mice were randomized into 6-8 groups as described in the tables below, and injected with vehicle, MLN8237 or SGN35 or the combination of MLN8237 with SGN35, at various doses as described below in Tables 1 and 2. Tumor size and body weight were measured approximately twice a week for the duration of the study. Mice were euthanized when their tumor volume reached 10% of their body weight, or when the average tumor volume of a treatment or control group reached approximately 2000 mm^3. Tumor growth continued to be monitored after the dosing period in this study. Average tumor volume is reported as a function of time for selected groups in FIG. 1A and FIG. 1B.
The synergy analysis is based on the tumor volume data from day 0 to 21. Volume measurements below 25 cubic mm are excluded from the analysis because very low volumes cannot be measured accurately. The remaining measurements are log transformed and fit to a simple linear model with the measurement day as a covariate. The data are fit separately for the different animals to yield an estimated tumor growth rate for each animal in each treatment group. Based on the growth rates, the synergy score for the combination of agents A and B is defined as 100*(mean(μAB)−mean(μA)−mean(μB)+mean(μctl))/mean(μctl): where μAB, μA, μB, and μctl are the mean tumor growth rates for animals in the combination group, the A group, the B group, and the control group, respectively. The standard error of the synergy score is computed based on the variation in the growth rates among the animals. […] If the P-value is above 0.05, then the combination is considered to be additive. If the P-value is below 0.05, and the synergy score is less than zero, then the combination is considered to be synergistic. […] Otherwise, the combination is classified as antagonistic. Results

Row | Compound | average tumor volume day 15 (10 mg/kg MLN8237, QD, P.O) | average tumor volume day 21 (10 mg/kg MLN8237, QD, P.O) | average tumor volume day 15 (20 mg/kg MLN8237, QD, P.O) | average tumor volume day 21 (20 mg/kg MLN8237, QD, P.O) | tumor growth compared to the control vehicle group (single agent MLN8237 P.O 10 mg/kg and 20 mg/kg QD) | average tumor volume day 15 (0.3 mg/kg SGN35, Q4d, I.P) | average tumor volume day 21 (0.3 mg/kg SGN35, Q4d, I.P) | average tumor volume day 15 (0.4 mg/kg SGN35, Q4d, I.P) | average tumor volume day 21 (0.4 mg/kg SGN35, Q4d, I.P) | tumor growth compared to the control vehicle group (single agent SGN35 0.3 and 0.4 mg/kg I.P Q4d)
1 | COc1cc(Nc2ncc3c(n2)-c2ccc(Cl)cc2C(c2c(F)cccc2OC)=NC3)ccc1C(=O)O [MLN8237, 4-{[9-chloro-7-(2-fluoro-6-methoxyphenyl)-5H-pyrimido[5,4-d][2]benzazepin-2-yl]amino}-2-methoxybenzoic acid] | 625.4 | 1121 | 387.1 | 576.4 | inhibited tumor growth | – | – | – | – | –
2 | SGN35 | – | – | – | – | – | 1136.1 | 1676 | 491.3 | 553.8 | inhibited tumor growth
